Reference: US10870633B2, “Types of C-3 substituted kynurenic acid derivatives with improved neuroprotective activity” (SZEGEDI TUDOMÁNYEGYETEM, priority 2016, dated 2020)
Where “and” joins values, the source holds several entries; their conditions need not be identical. Identical values can stand only once. Like-named read-outs stand apart in the source and are kept apart here.

Key:
[1] = system: blood-brain barrier model (co-cultivation of primary rat brain endothelial cells, primary glia and brain microvascular pericyte cells); test: Passage on the culture model of the blood-brain barrier (bidirectional permeability); format: in vitro ADME; conditions: for Papp A-B 30′ / Papp A-B 60′ / Papp B-A 30′ / Papp B-A 60′ / Passage through the blood-brain barrier compared to the 24/1 and 24/2 comparative compounds / Efflux ratio: Papp BA/PappAB: 10 μM; for Papp A-B 30′ / Papp A-B 60′: AB (from blood to brain) direction; for Papp A-B 30′ / Papp B-A 30′: sampling at 30 minutes; for Papp A-B 30′ / Papp A-B 60′ / Papp B-A 30′ / Papp B-A 60′: single replicates; for Papp A-B 60′ / Papp B-A 60′: sampling at 60 minutes; for Papp B-A 30′ / Papp B-A 60′: BA (from brain to blood) direction; for Passage through the blood-brain barrier compared to the 24/1 and 24/2 comparative compounds: FIG. 2; for Permeability grade in words: blood-brain barrier model
Source text: (§1) The blood-brain barrier model prepared by the co-cultivation of three cell types (primary rat brain endothelial cells, primary glia and brain microvascular pericyte cells) was used for the permeability experiments (Nakagawa S, Deli M A, Kawaguchi H, Shimizudani T, Shimono T, Kittel A, Tanaka K, Niwa M. Anew blood-brain barrier model using primary rat brain endothelial cells, pericytes and astrocytes. Neurochem Int. 2009 March-April; 54(3-4):253-63. doi: 10.1016/j.neuint.2008.12.002.; Veszelka S, Tóth A E, Walter F R, Datki Z, Mózes E, Fülöp L, Bozsó Z, Hellinger E, Vastag M, Orsolits B, Környei Z, Penke B, Deli M A. Docosahexaenoic acid reduces amyloid-β induced toxicity in cells of the neurovascular unit. J Alzheimers Dis. 2013; 36(3):487-501.).
(§2) Passage of the compounds of the invention was tested in two directions AB (“from blood to brain”) and BA (“from brain to blood”), in 10 μM concentration.
(§3) The permeability experiment took 60 minutes, with sampling at 30 and 60 minutes from the acceptor compartment.
(§4) The concentrations of the active substances passed through the endothelial cell layer were determined with mass spectrometry. By using the measured concentrations and the known data (volume, starting concentration) the clearance (μl) values, or from the clearance and volume data, by taking the surface and the time into consideration, the so-called permeability coefficients (papp, apparent permeability coefficient; measurement unit 10^−6 cm/s) were calculated, which provide the permeation rates of the compounds.

[2] = as above; format: in vitro ADME, rat; conditions: rat, 10 μM; for Papp A→B at 60 min, 10 μM / Papp A→B at 30 min, 10 μM: AB (from blood to brain) direction; for Papp B→A at 60 min, 10 μM / Papp B→A at 30 min, 10 μM: BA (from brain to blood) direction; for efflux ratio at 60 min, 10 μM: read-out: Efflux ratio: Papp BA/PappAB
Source text: as §1, §2, §3, §4

[3] = Solubility compared to previously synthesized analogues (statement); format: physicochemical
[4] = system: fEPSP from the stratum radiatum layer of the CA1 region of the hippocampus; test: In vitro electrophysiology on hippocampal brain slices (fEPSP amplitude, CA1); format: cell-based, Wistar rats; conditions: for fEPSP amplitude, minutes 31-40 of recording (washing in phase): normalized to the averages of the amplitudes of the control phase, last 10 minutes of washing in; for fEPSP amplitude, minutes 61-70 of recording (washing off phase): after 200 μM, normalized to the control phase, last 10 minutes of recording
Procedure: In the course of our experiments young adult (200-250 g) male Wistar rats were used. Until the start of the experiments the animals were housed in the animal house of the Department of Physiology, Anatomy and Neuroscience, University of Szeged, in standard plastic cages, where 12-12 hours light-dark cycles, standard 23° C. temperature and free access to water and food were provided. In the course of the experiments we aimed at using a minimum number of animals and to cause them the smallest degree of suffering. In each case the principles relating to the care of laboratory animals, the animal care related protocol approved by the Hungarian Health Committee (1998), and the Decree of the Council of the European Communities of 22 Sep. 2010 (2010/63/EU) were followed.
The animals received Isoflurane (3% and then 1%) inhalation anaesthesia for the electrophysiological measurements. After ensuring that the animals were in a deep sleep phase (the paw withdrawal reflex occurring for squeezing stopped), they were decapitated. By incising the head skin and the underlying connective tissue the skull was exposed. Then incisions were made in longitudinal direction along the sagittal suture as well as in transversal direction along the suture coronalis, furthermore caudally therefrom in the right and left direction. After the opening the bregma coronalis incisions were made behind the bulbi and in front of the cerebellum, allowing the removal of the approx. 3 mm thick brain region, containing the hippocampus. From the middle part of the hippocampus 350 μm thick slices were prepared with vibratome (Leica VT1200S, Germany). The cutting was performed in artificial cerebrospinal fluid (aCSF), whose temperature was 4° C. maximum. The aCSF was composed of: 130 mM NaCl, 3.5 mM KCl, 1 mM NaH2PO4, 24 mM NaHCO3, 1 mM […], 3 mM MgSO4 and 10 mM D-glucose (Sigma, Germany). The cut slices were placed in recording aCSF of room temperature, whose composition differed only in the 3 mM CaCl2) and 1.5 MgSO4 concentrations from the one used for cutting. Both the cutting and the recording aCSF were oxygenated with carbogen (95% O2, 5% CO2), for providing the suitable and uninterrupted O2 supply. After the preparation of all the hippocampal slices the recording aCSF in the slice holder container was warmed to 34-35° C., and the brain slices were left to recover for one hour under these conditions in order to assure the proceeding of the regeneration processes started against the damages caused in the course of the slice-preparation. […]
For the electrophysiological recordings a concentric stainless steel electrode (Neuron elektród kft; Budapest, Hungary) was placed in the stratum radiatum layer between the CA3-CA1 regions of the hippocampus, wherein the stimulation was performed with constant current intensity, with 0.2 ms pulses of 0.033 Hz frequency. By positioning the recording electrodes of 2-3 MΩ filled with aCSF in orthodrom position from the previously mentioned region, stimulating postsynaptic field potentials (fEPSP) were conducted from the stratum radiatum layer of the CA1 region, and their amplitudes were monitored.
Submaximal stimulation was used, i.e. about 70-80% of the intensity of the smallest pulse causing the fEPSP of maximum amplitude was used. […] The results were evaluated with the OriginPro 8 (OriginLab Corporation, Northampton, Mass., USA) software. […]

[5] = average, n=6, read-out: Papp A-B Average
[6] = sampling at 60 minutes, single replicates, read-out: Papp A-B 60′
[7] = average, n=6, read-out: Papp B-A Average
[8] = sampling at 60 minutes, single replicates, read-out: Papp B-A 60′

With Cl.O=C(O)c1nc2ccccc2c(O)c1CN1CCOCC1 [Example 5, 4-hydroxy-3-(morpholinomethyl)quinoline-2-carboxylic acid hydrochloride] the “Papp A-B 30′” value ([1]; hydrochloride) was 8.9 10^−6 cm/s and 8.2 10^−6 cm/s, the “Papp A-B 60′” value ([1]; hydrochloride) was 15.4 10^−6 cm/s and 13.9 10^−6 cm/s and the “Papp B-A 30′” value ([1]; hydrochloride) was 4.0 10^−6 cm/s and 3.2 10^−6 cm/s. The “Papp B-A 60′” value ([1]; hydrochloride) was 7.8 10^−6 cm/s and 7.5 10^−6 cm/s, the “Passage through the blood-brain barrier compared to the 24/1 and 24/2 comparative compounds” value [1] was “doubled” and the “Permeability grade in words” value [1] was “medium permeability”. For the same molecule, the Papp A→B at 60 min, 10 μM [2, 5] was 11 ×10⁻⁶ cm/s, the Papp A→B at 30 min, 10 μM ([2]; single replicates) was 7.4 ×10⁻⁶ cm/s and the Papp A→B at 60 min, 10 μM [2, 6] was 12.4 ×10⁻⁶ cm/s. For the same molecule, the Papp B→A at 60 min, 10 μM [2, 7] was 5.4 ×10⁻⁶ cm/s, the Papp B→A at 30 min, 10 μM ([2]; single replicates) was 2.5 ×10⁻⁶ cm/s and the Papp B→A at 60 min, 10 μM [2, 8] was 7.6 ×10⁻⁶ cm/s. The efflux ratio at 60 min, 10 μM [2] was ~0.5.

With CN(C)CCNC(=O)c1nc2ccccc2c(O)c1CN1CCOCC1 [Example 16, N-(2-(dimethylamino)ethyl)-4-hydroxy-3-(morpholinomethyl)quinoline-2-carboxamide] the “Papp A-B 30′” value [1] was 37.2 10^−6 cm/s and 38.0 10^−6 cm/s, the “Papp A-B 60′” value [1] was 37.4 10^−6 cm/s and 38.6 10^−6 cm/s and the “Papp B-A 30′” value [1] was 21.8 10^−6 cm/s and 21.3 10^−6 cm/s. The “Papp B-A 60′” value [1] was 23.2 10^−6 cm/s and 23.8 10^−6 cm/s, the “Passage through the blood-brain barrier compared to the 24/1 and 24/2 comparative compounds” value [1] was “six times higher” and the “Permeability grade in words” value [1] was “high permeability”. The Papp A→B at 60 min, 10 μM [2, 5] was 36.9 ×10⁻⁶ cm/s, the Papp A→B at 30 min, 10 μM ([2]; single replicates) was 32.7 ×10⁻⁶ cm/s and the Papp A→B at 60 min, 10 μM [2, 6] was 37.8 ×10⁻⁶ cm/s. It also gave a Papp B→A at 60 min, 10 μM [2, 7] of 22 ×10⁻⁶ cm/s, a Papp B→A at 30 min, 10 μM ([2]; single replicates) of 20.1 ×10⁻⁶ cm/s and a Papp B→A at 60 min, 10 μM [2, 8] of 21.7 ×10⁻⁶ cm/s. It also gave an efflux ratio at 60 min, 10 μM [2] of ~0.5.

With Cl.O=C(NCCN1CCCC1)c1cc(O)c2ccccc2n1 [comparative 24/1, 4-hydroxy-N-(2-(pyrrolidin-1-yl)ethyl)quinoline-2-carboxamide, reference compound] the “Efflux ratio: Papp BA/PappAB” value [1] was 1.5, the “Papp A-B 30′” value [1] was 4.5 10^−6 cm/s and 7.4 10^−6 cm/s and the “Papp A-B 60′” value [1] was 3.9 10^−6 cm/s and 5.8 10^−6 cm/s. The “Papp B-A 30′” value [1] was 8.1 10^−6 cm/s and 4.2 10^−6 cm/s, the “Papp B-A 60′” value [1] was 10.5 10^−6 cm/s and 9.2 10^−6 cm/s and the Papp A→B at 60 min, 10 μM [2, 5] was 5.7 ×10⁻⁶ cm/s. It also gave a Papp A→B at 30 min, 10 μM ([2]; single replicates) of 5.4 ×10⁻⁶ cm/s, a Papp A→B at 60 min, 10 μM [2, 6] of 7.2 ×10⁻⁶ cm/s and a Papp B→A at 60 min, 10 μM [2, 7] of 8.8 ×10⁻⁶ cm/s. It also gave a Papp B→A at 30 min, 10 μM ([2]; single replicates) of 8.3 ×10⁻⁶ cm/s, a Papp B→A at 60 min, 10 μM [2, 8] of 12.2 ×10⁻⁶ cm/s and an efflux ratio at 60 min, 10 μM [2] of ~1.

For O=C(NCCN1CCCC1)c1nc2ccccc2c(O)c1CN1CCOCC1 [Example 20, 4-hydroxy-3-(morpholinomethyl)-N-(2-(pyrrolidin-1-yl)ethyl)quinoline-2-carboxamide], the “Papp A-B 30′” value [1] was 20.1 10^−6 cm/s and 17.9 10^−6 cm/s, the “Papp A-B 60′” value [1] was 21.5 10^−6 cm/s and 18.8 10^−6 cm/s and the “Papp B-A 30′” value [1] was 24.3 10^−6 cm/s and 25.1 10^−6 cm/s. The “Papp B-A 60′” value [1] was 26.7 10^−6 cm/s and 26.6 10^−6 cm/s, the “Passage through the blood-brain barrier compared to the 24/1 and 24/2 comparative compounds” value [1] was “triple” and the Papp A→B at 60 min, 10 μM [2, 5] was 18.6 ×10⁻⁶ cm/s. For the same molecule, the Papp A→B at 30 min, 10 μM ([2]; single replicates) was 16.4 ×10⁻⁶ cm/s, the Papp A→B at 60 min, 10 μM [2, 6] was 16.9 ×10⁻⁶ cm/s and the Papp B→A at 60 min, 10 μM [2, 7] was 25 ×10⁻⁶ cm/s. For the same molecule, the Papp B→A at 30 min, 10 μM ([2]; single replicates) was 22.3 ×10⁻⁶ cm/s, the Papp B→A at 60 min, 10 μM [2, 8] was 24.9 ×10⁻⁶ cm/s and the efflux ratio at 60 min, 10 μM [2] was ~1. For the same molecule, the “Solubility compared to previously synthesized analogues or other analogues with similar effect” value [3] was “better solubility”, the “fEPSP amplitude, minutes 31-40 of recording (washing in phase)” value ([4]; 200 μM) was 58.14±10.16% and the “fEPSP amplitude, minutes 61-70 of recording (washing off phase)” value [4] was 107.14±17.99%.

In the case of CCN(CC)Cc1c(C(=O)NCCN2CCCC2)nc2ccccc2c1O [Example 17, 3-((diethylamino)methyl)-4-hydroxy-N-(2-(pyrrolidin-1-yl)ethyl)quinoline-2-carboxamide], the “fEPSP amplitude, minutes 31-40 of recording (washing in phase)” value ([4]; 200 μM) is reported as 124.66±10.43% and the “fEPSP amplitude, minutes 61-70 of recording (washing off phase)” value [4] is reported as 110.73±7.63%.

For O=C(O)c1cc(O)c2ccccc2n1 [kynurenic acid, 4-hydroxy-quinoline-2-carboxylic acid], the “fEPSP amplitude decrease in the last 10 minutes of the washing in phase” value ([4]; 200 μM, preliminary experimental results) was 53.86±6.09%.

For CN(C)CCNC(=O)c1cc(O)c2ccccc2n1.Cl [comparative 24/2, N-(2-(dimethylamino)ethyl)-4-hydroxyquinoline-2-carboxamide, reference compound], the “Efflux ratio: Papp BA/PappAB” value [1] was 1.2, the “Papp A-B 30′” value [1] was 8.3 10^−6 cm/s and 6.4 10^−6 cm/s and the “Papp A-B 60′” value [1] was 8.4 10^−6 cm/s and 6.7 10^−6 cm/s. For the same molecule, the “Papp B-A 30′” value [1] was 7.9 10^−6 cm/s and 7.2 10^−6 cm/s, the “Papp B-A 60′” value [1] was 7.9 10^−6 cm/s and 8.5 10^−6 cm/s and the Papp A→B at 60 min, 10 μM [2, 5] was 6.7 ×10⁻⁶ cm/s. The Papp A→B at 30 min, 10 μM ([2]; single replicates) was 4.2 ×10⁻⁶ cm/s, the Papp A→B at 60 min, 10 μM [2, 6] was 6 ×10⁻⁶ cm/s and the Papp B→A at 60 min, 10 μM [2, 7] was 8.1 ×10⁻⁶ cm/s. For the same molecule, the Papp B→A at 30 min, 10 μM ([2]; single replicates) was 7.6 ×10⁻⁶ cm/s, the Papp B→A at 60 min, 10 μM [2, 8] was 9.7 ×10⁻⁶ cm/s and the efflux ratio at 60 min, 10 μM [2] was ~1.
